Measured values reported in paper PMC7794397, “Curbing gastrointestinal infections by defensin fragment modifications without harming commensal microbiota” (Communications Biology, 2021).
Where “and” joins values, the source holds several entries; their conditions need not be identical. Equal entries are not always repeated. Where two headings read alike, the source gives them in different places. Residues, ends and D or L forms follow the SMILES beside them. *: point of attachment. Palmitoyl = CCCCCCCCCCCCCCCC(=O)*; AEEA = NCCOCCOCC(=O)O

Columns and labels:
[1] = Oral tolerance test (safety) in mice; type: in vivo, C57BL/6N mice; conditions: for Creatinin / GOT: serum; for Creatinin / GOT / Bodyweight loss: individual animals
Description: C57BL/6N mice were generated and maintained (including breeding and housing) at the animal facilities of the Helmholtz Centre for Infection Research (HZI) under enhanced specific pathogen-free (SPF) conditions. Animals used in the experiments were gender and age matched. Female and male mice with an age of 8–12 weeks were used. Sterilized food and water ad libitum was provided. Mice were kept under a strict 12-h light cycle (lights on at 7:00 am and off at 7:00 pm) and housed in groups of two to six mice per cage. All mice were euthanized by asphyxiation with CO2 and cervical dislocation. All animal experiments were performed in agreement with the local government of Lower Saxony, Germany (approved permission No. 33.19-42502-04-18/2499).
Age- and gender-matched mice received two doses of peptides (0, 125 µg or 250 µg) solved in 100 µl PBS orally per day. Bodyweight and appearance were recorded. The following day, mice were sacrificed and stomach, kidney, spleen, liver, small intestine, cecum, and colon were removed for histological scoring. Around 1 ml of blood was taken from the heart to measure inflammatory markers, including creatinine in the kidney and the enzyme levels of glutamate-oxalacetate-transaminase (GOT) in the liver.

[2] = test system: S. aureus NCTC8325; experiment: Bacterial membrane potential (DiOC2(3)); type: cell-based; conditions: 30 min of treatment
Experimental: For determination of membrane potential changes, S. aureus NCTC8325 was grown to log-phase in LB + 0.1% glucose, harvested and the optical density at 600 nm (OD600) was adjusted to 0.5. Bacteria were incubated with 30 µM 3,3′-diethyloxacarbocyanine iodide (DiOC2(3), Invitrogen™) for 15 min in the dark and treated with serial peptide concentrations for 30 min. The protonophore carbonyl cyanide m-chlorophenyl hydrazone (CCCP, Sigma Aldrich) was used as a positive control and DMSO or 0.01% acetic acid as negative controls. Fluorescence was measured at an excitation wavelength of 485 nm and two emission wavelengths, 530 nm (green) and 630 (nm) red, using a microplate reader (Tecan, Switzerland).

[3] = test system: S. aureus NCTC8325; experiment: Bacterial pore formation (SYTO9/propidium iodide); type: cell-based; conditions: 37.5 µM Pam-3 (4x MIC), 10 min; Syto9 and propidium iodide
Experimental: Pore formation was monitored using the Live/Dead BacLight bacterial viability kit (Molecular Probes)[60]. […] Samples were taken after 10 min of peptide treatment, then 0.2 µl of a 1:1 mixture of SYTO9 and propidium iodide (PI) was added and further incubated for 15 min at RT in the dark. […] Images were acquired with an Orca Flash 4.0 V2 camera (Hamamatsu), C Plan-Apo 63x/1.4 Oil DIC and alpha Plan-Apochromat 100x/1.46 Oil Ph3 objectives (Zeiss) and processed using the Zen software package (Zeiss).

[4] = test system: multidrug resistant bacteria belonging to the ESKAPE pathogen panel; type: cell-based
Experimental: Bactericidal activity was assessed by broth microdilution assay. […] After incubation, 100 µl of 6% TSB (w/v) were added and absorbance was measured at 600 nm (Tecan, Switzerland) and monitored for 18 h. Afterward, 100 µl per well were plated on LB agar to determine the numbers of viable bacteria microbiologically. Bactericidal activity is expressed as the LC99.9, the lowest concentration that killed ≥99.9 % of bacteria.

[5] = test system: several pathogenic bacteria; experiment: Radial diffusion assay, all tested strains; type: cell-based
Experimental: Antimicrobial activity was analyzed by radial diffusion assay. Log-phase bacteria were cultivated for up to 18 h in TSB (TSB, Becton Dickinson, USA), washed and diluted to 4 × 10^6 CFU in 10 ml agar. Bacteria were incubated in 10 ml of 10 mM sodium phosphate, pH 7.4, containing 0.3 mg/ml of TSB powder and 1% (w/v) low EEO-agarose (AppliChem). 1 µg of each lipopeptide was pipetted into punched wells in a final volume of 4 µl and diffused into the gel for 3 h at 37 °C. After that, a nutrient-rich gel with 6% TSB (w/v) and 1% agarose in 10 mM sodium phosphate buffer was poured on top of the first gel and incubated for up to 24 h at 37 °C. Then the diameter of inhibition zones was measured.

[6] = test system: S. aureus ATCC 25923; type: cell-based; conditions: for Fold change in MIC: relative to MIC of first passage, Mean
Experimental: Development of resistance to the peptides was assessed with S. aureus and S. Typhimurium. […] Bacteria were cultured overnight at 37 °C at 150 rpm in TSB. Bacteria were washed twice with 10 mM sodium phosphate buffer containing 1% (w/v) TSB. […] After incubation, 100 µl of 6% TSB (w/v) was added and plates incubated in a humidified atmosphere for 21 h at 37 °C and 150 rpm.
The MIC, the lowest concentration of peptide/antibiotic that caused a lack of visible bacterial growth, was determined for each bacterial species. […] This was repeated for 25 passages.

[7] = histology, animals with signs of pathology/total, treated twice with 250 µg orally, within 24 h
[8] = one day after 2 x 125 µg orally, N = 4
[9] = one day after 2 x 250 µg orally, N = 6

Structure (SMILES): CCCCCCCCCCCCCCCC(=O)NCCOCCOCC(=O)N[C@@H](CCCNC(=N)N)C(=O)NCC(=O)N[C@@H](CCCCN)C(=O)N[C@@H](C)C(=O)N[C@@H](CCCCN)C(=O)N[C@@H](CS)C(=O)N[C@@H](CS)C(=O)N[C@@H](CCCCN)C(=O)O [Pam-3] ({Palmitoyl-AEEA}-RGKAKCCK-OH; C-terminus assumed)
- acute toxicity (in words) ([1]; histology and serum markers 24 h after two doses of 250 µg orally): did not reveal acute toxicity
- Cecum and Colon: Dysplasia [1, 7]: 0/6
- Cecum and Colon: Inflammation [1, 7]: 0/6
- Duodenum-Jejunum: Dysplasia [1, 7]: 0/6
- Duodenum-Jejunum: Inflammation [1, 7]: 0/6
- Jejunum-Ileum: Dysplasia [1, 7]: 2/6
- Jejunum-Ileum: Inflammation [1, 7]: 0/6
- Jejunum-Ileum: Paneth cells [1, 7]: 0/6
- Kidney: Glomeruli [1, 7]: 0/6
- Kidney: Papilla [1, 7]: 0/6
- Kidney: Pelvis [1, 7]: 0/6
- Kidney: Tubuli [1, 7]: 3/6
- Liver: Anisocaryosis [1, 7]: 0/6
- Liver: Double nucleated cells [1, 7]: 0/6
- Liver: Fatty change [1, 7]: 0/6
- Liver: Glycogen [1, 7]: 0/6
- Liver: Hematopoiesis [1, 7]: 0/6
- Liver: Lymphocytic aggregates [1, 7]: 0/6
- Stomach: Glycogen [1, 7]: 0/6
- Stomach: Lymphocytic aggregates [1, 7]: 0/6
- bodyweight (in words) ([1]; oral Pam-3, Fig. 4a): no alterations in bodyweight
- serum glutamic oxaloacetic transaminase vs PBS (in words) ([1]; oral Pam-3, Fig. 4b): no significant differences
- serum creatinine vs PBS (in words) ([1]; oral Pam-3, Fig. 4c): no significant differences
- Creatinin [1, 8]: 0.7 mg/dL and 0.3 mg/dL
- GOT [1, 8]: 56 U/I and 83 U/I and 71 U/I and 622 U/I
- Creatinin [1, 9]: 0.4 mg/dL and 0.5 mg/dL and 0.3 mg/dL and 0.2 mg/dL and 0.6 mg/dL
- GOT [1, 9]: 271 U/I and 163 U/I and 240 U/I and 280 U/I and 771 U/I and 499 U/I
- Bodyweight loss ([1]; treated twice with 125 µg orally, N = 5): 98.6047% and 99.4355% and 98.663% and 99.2814% and 97.8588%
- Bodyweight loss ([1]; treated twice with 250 µg orally, N = 6): 97.5318% and 97.8707% and 99.133% and 99.7222% and 99.016% and 101.461%
- effect on membrane potential (in words) [2]: breakdown of the membrane potential in a concentration-dependent manner
- pore formation (in words) [3]: strong influx of PI
- effective concentrations (LC99.9) across the panel ([4]; 18 different bacteria, three experiments each): 4.69 to 18.75 µM
- overall measured mean effective concentration ([4]; 18 different bacteria, three experiments each, peer review file): 9.38 µM
- bactericidal activity (in words) ([4]; broth microdilution, ESKAPE panel): highly effective
- antimicrobial activity (in words) [5]: potent inhibition
- Fold change in MIC ([6]; Day (passage) 0): 1.0
- Fold change in MIC ([6]; Day (passage) 1): 0.7
- Fold change in MIC ([6]; Day (passage) 2): 1.0
- Fold change in MIC ([6]; Day (passage) 3): 1.0
- Fold change in MIC ([6]; Day (passage) 4): 1.3
- Fold change in MIC ([6]; Day (passage) 5): 1.2
- Fold change in MIC ([6]; Day (passage) 6): 0.8
- Fold change in MIC ([6]; Day (passage) 7): 0.7
- Fold change in MIC ([6]; Day (passage) 8): 0.8
- Fold change in MIC ([6]; Day (passage) 9): 1.0
- Fold change in MIC ([6]; Day (passage) 10): 1.3
- Fold change in MIC ([6]; Day (passage) 11): 1.3
- Fold change in MIC ([6]; Day (passage) 12): 1.2
- Fold change in MIC ([6]; Day (passage) 13): 1.2
- Fold change in MIC ([6]; Day (passage) 14): 1.3
- Fold change in MIC ([6]; Day (passage) 15): 1.2
- Fold change in MIC ([6]; Day (passage) 16): 0.7
- Fold change in MIC ([6]; Day (passage) 17): 1.3
- Fold change in MIC ([6]; Day (passage) 18): 0.7
- Fold change in MIC ([6]; Day (passage) 19): 1.8
- Fold change in MIC ([6]; Day (passage) 20): 1.2
- Fold change in MIC ([6]; Day (passage) 21): 1.0
- Fold change in MIC ([6]; Day (passage) 22): 1.3
- Fold change in MIC ([6]; Day (passage) 23): 1.2
- Fold change in MIC ([6]; Day (passage) 24): 1.3
- Fold change in MIC ([6]; Day (passage) 25): 1.2
- increase in MIC (in words) ([6]; sub-inhibitory concentrations for 25 passages): no significant increase
